# Source: patent publication US20240343728A1, “COMPOUNDS THAT INHIBIT PI3K ISOFORM ALPHA AND METHODS FOR TREATING CANCER” (Scorpion Therapeutics, Inc., priority 2021, published 2024)
# Tested on: T47D pAKT
# Test: Homogenous Time-Resolved Fluorescence (HTRF) Assay pAKT-T47D
# Assay type: cell-based
# Settings: Homo sapiens; T47D.1 cell line, PI3Kα H1047R mutation present, HTRF detection pAKT (S473), timepoint 1 hour
# Procedure: Homogenous Time-Resolved Fluorescence (HTRF) Assay—pAKT-T47D
# Compounds were assayed using homogeneous time-resolved fluorescence (HTRF).
# Gibco RPMI 1640 Medium, no phenol red; Gibco RPMI 1640 Medium; Gibco Trypsin-EDTA (0.5%), no phenol red; Gibco DPBS; Trypan blue solution 0.4% (Corning); Avantor Seradigm Premium Grade Fetal Bovine Serum (FBS); Greiner 784080-384 well TC treated white plates; pAKT (Ser473) HTRF; Gibco Insulin, human recombinant, zinc solution; Gibco Recovery Cell Culture Freezing Medium; Countess II FL Automated Cell Counter (ThermoFisher); Countess II Slides (ThermoFisher); Microscope; and PHERAstar FSX Microplate Reader (BMG LABTECH, Inc.).
# The scinamic cell line ID was T47D.1, the HTRF detection was pAKT (S473), a PI3Kα H1047R mutation was present, the seeding density was 5000, the timepoint was 1 hour, and the medium used was RPMI+10% FBS (no phenol red)+0.2 units/ml bovine insulin.
# The procedure was as follows: • 1. Prepared ARP: • a. Stamped 12.5 nL from 10 mM source plate to destination plate using Echo. Sealed plate immediately and froze at −20° C. if it was not used on the same day. • b. If a frozen ARP was used, the plate was thawed and spun at 1000 rpm×1 min. • 2. Preparation of cells (adherent): • a. Aspirated media from cells. Washed cells with sterile 1×PBS. Aspirated PBS and added appropriate amount of Trypsin. • b. Once cells were fully trypsinized, added appropriate media to resuspend cells. Transferred cells to a 15 mL or 50 mL conical tube. • c. Counted cells on the Countess II Cell Counter. • 3. Plating of cells: • a. Prepared cells at appropriate plating density. Dispensed 12 μL of diluted cells per well of a Greiner 784080-384 well TC treated white plate using a Multidrop Combi to columns 1-23. Added 12 uL of appropriate phenol free media only to column 24. • b. Placed plates in 37° C. tissue culture incubator for appropriate treatment time (refer to “Assay” table). • 4. Prepared HTRF Lysis Buffer • a. Calculate the amount of HTRF lysis buffer master mix needed to perform the desired experiments plus any extra dead volume required for dispensing (4 μL required per well). Dilute the Blocking Reagent into 4× Lysis Buffer at a ratio of 1:25 (i.e. 0.1 mL Blocking Reagent Solution plus 2.4 mL 4× Lysis Buffer). • b. Add 4 uL Lysis buffer master mix to all wells with sample or DMSO. Centrifuge the plates for 1 minute at 1000 rpm. • c. Incubate at room temperature for 30 minutes. • 5. Prepared HTRF Antibody • a. Calculated the amount of HTRF antibody master mix needed to perform the desired experiments plus any extra dead volume required for dispensing ([…]). Eu Cryptate antibody and d2 antibody were added to detection buffer each at a ratio of 1:40 (i.e. 100 μL Eu Cryptate+100 μL d2 Cryptate+3800 μL detection buffer). • b. 4 μL of antibody master mix was added to each well including the media only column 24. • c. Centrifuged the plates for 1 minute at 1000 rpm. Placed lid on and created a “humidity chamber” by placing the plates into a ziplock bag with wet paper towels or something similar and incubated overnight at room temperature, keeping away from light.
# • 6. Measured on the PHERAstar/Envision using the HTRF protocol. When plates were read, all wells were read.
row,Compound,IC50
1,"Cc1c([C@H](Nc2nc3nc(N)ncc3[nH]2)C(F)(F)F)oc2ccc(F)cc12 [Compound 7b, (S)-N^8-(2,2,2-trifluoro-1-(5-fluoro-3-methylbenzofuran-2-yl)ethyl)-7H-purine-2,8-diamine]",200 to 500 nM
2,"Cc1c([C@@H](Nc2nc3ccc(C(N)=O)cc3[nH]2)C(C)C)oc2ccc(F)cc12 [Compound 2, (S)-2-((1-(5-fluoro-3-methylbenzofuran-2-yl)-2-methylpropyl)amino)-1H-benzo[d]imidazole-6-carboxamide]",200 to 500 nM
3,"Cc1c([C@@H](Nc2nc3cc(S(C)(=O)=O)cnc3[nH]2)C(F)(F)F)oc2ccc(F)cc12 [Compound 5a, (R)-6-(methylsulfonyl)-N-(2,2,2-trifluoro-1-(5-fluoro-3-methylbenzofuran-2-yl)ethyl)-3H-imidazo[4,5-b]pyridin-2-amine]",200 to 500 nM
4,"Cc1c(C(Nc2nc3cc(S(C)(=O)=O)ccc3[nH]2)C(F)(F)F)oc2ccc(F)cc12 (racemic) [Compound 6b, 5-(methylsulfonyl)-N-(2,2,2-trifluoro-1-(5-fluoro-3-methylbenzofuran-2-yl)ethyl)-1H-benzo[d]imidazol-2-amine]",200 to 500 nM
5,"Cc1c([C@@H](Nc2nc3ccc(S(C)(=O)=O)cc3[nH]2)C(C)C)oc2ccc(F)cc12 [Compound 4, (S)-N-(1-(5-fluoro-3-methylbenzofuran-2-yl)-2-methylpropyl)-6-(methylsulfonyl)-1H-benzo[d]imidazol-2-amine]",< 200 nM
6,"Cc1c([C@@H](Nc2nc3ccc(S(N)(=O)=O)cc3[nH]2)C(C)C)oc2ccc(F)cc12 [Compound 3, (S)-2-((1-(5-fluoro-3-methylbenzofuran-2-yl)-2-methylpropyl)amino)-1H-benzo[d]imidazole-6-sulfonamide]",< 200 nM
7,"Cc1c([C@@H](Nc2nc3ccc(C#N)cc3[nH]2)C(C)C)oc2ccc(F)cc12 [Compound 1, (S)-2-((1-(5-fluoro-3-methylbenzofuran-2-yl)-2-methylpropyl)amino)-1H-benzo[d]imidazole-6-carbonitrile]",≥ 500 nM
